Laboratory results taken from publication PMC3424541 (2012).

Target: T1, HsRAD51 (Homo sapiens, UniProt Q06609)
T1 sequence (Q06609 2-339): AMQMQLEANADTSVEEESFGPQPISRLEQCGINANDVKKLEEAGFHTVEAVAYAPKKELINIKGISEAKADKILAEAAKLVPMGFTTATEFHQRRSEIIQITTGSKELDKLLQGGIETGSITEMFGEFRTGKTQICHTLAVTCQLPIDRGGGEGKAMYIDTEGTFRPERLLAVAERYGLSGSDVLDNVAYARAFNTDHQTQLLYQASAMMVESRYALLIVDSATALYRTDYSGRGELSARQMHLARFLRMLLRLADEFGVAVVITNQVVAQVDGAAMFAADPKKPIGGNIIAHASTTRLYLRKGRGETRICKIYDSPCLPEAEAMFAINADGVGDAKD
Assay: LC-MS/MS of the covalent adduct at C319
Format: binding

IC50: 5 to 30 µM
SMILES: O=C1C(Cl)=C(N2CCOCC2)C(=O)N1c1ccc(Cl)c(Cl)c1 [RI-1, 3-chloro-1-(3,4-dichlorophenyl)-4-(4-morpholinyl)-1H-pyrrole-2,5-dione]
